Each structure is given as a SMILES string.

These results are taken from patent US20130274276A1, “METHODS AND COMPOSITIONS FOR DETERMINING VIRUS SUSCEPTIBILITY TO NON-NUCLEOSIDE REVERSE TRANSCRIPTASE INHIBITORS” (Laboratory Corporation of America Holdings, priority 2012, published 2013).

Type in all cases: cell-based
Assay [1] has as its system HIV strain derived from an infected patient having a Y188L mutation. Put plainly: PhenoSenseGT report, susceptibility analysis of patient-derived HIV. The conditions noted are these: fold change in IC50 greater than the biological cutoff (BCO) for those drugs, FIG. 3. How it is done:
FIG. 3 is a sample PhenoSenseGT® report showing the results of susceptibility analyses to various nucleoside reverse transcriptase inhibitors (NRTIs), non-nucleoside reverse transcriptase inhibitors (NNRTIs), and protease inhibitors (PIs).
Drug susceptibility tests performed with resistance test vectors were carried out using packaging host and target host cells consisting of the human embryonic kidney cell line 293. Susceptibility tests were carried out with the RTV libraries by using viral particles comprising the RTV libraries to infect a host cell in which the expression of the indicator gene is measured. The amount of indicator gene (luciferase) activity detected in infected cells is used as a direct measure of “infectivity,” i.e., the ability of the virus to complete a single round of replication. Thus, drug susceptibility can be determined by plotting the amount of luciferase activity produced by patient derived viruses in the presence of varying concentrations of the antiviral drug. By identifying the concentration of drug at which luciferase activity is half-maximum, the IC50 of the virus from which patient-derived segment(s) were obtained for the antiretroviral agent can be determined. The IC50 provides a direct measure of the susceptibility of the HIV infecting the patient to the drug. […]

Assay [2] concerns HIV engineered to contain the Y188L reverse transcriptase mutation. How it is done: Site-directed mutagenesis (SDM) was performed to verify the association of Y188L with RPV resistance. The impact of this mutation was also evaluated and compared to the existing RPV RAMs (K101E/P, E138A/G/K/Q/R, V179L, Y181C/I/V, H221Y, F227C, and M230I/L) by performing in-silico site directed mutagenesis (is SDM) as a method for analyzing samples in the database that have wild type amino acids at RPV resistance positions except for the single mutation of interest. Samples were not excluded based on other NNRTI RAMs, or their NRTI and PI profile. In the is SDM analysis, fold change (FC) distribution of samples with each mutation was compared to specimens without the mutation, and the difference was evaluated for statistical significance using Mann-Whitney test. […]
Drug susceptibility tests performed with resistance test vectors were carried out using packaging host and target host cells consisting of the human embryonic kidney cell line 293. Susceptibility tests were carried out with the RTV libraries by using viral particles comprising the RTV libraries to infect a host cell in which the expression of the indicator gene is measured. The amount of indicator gene (luciferase) activity detected in infected cells is used as a direct measure of “infectivity,” i.e., the ability of the virus to complete a single round of replication. […]

The subject of assay [3] is HIV clinical specimens with Y188L and no known RPV resistance associated mutations. Put plainly: In-silico site directed mutagenesis (isSDM) analysis of matched phenotype/genotype database of clinical specimens. The following applies: 286 clinical specimens with Y188L and no known RPV resistance associated mutations; biological cutoff FC=2. As for the experimental part: Rilpivirine (RPV) is a recently approved non-nucleoside reverse transcriptase inhibitor (NNRTI). […] Correlation analysis was performed among clinical specimens with both phenotypic and genotypic data (N=20,004). A novel mutation associated with phenotypic reduced rilpivirine susceptibility was identified, Y188L, as determined by a fold change in IC50 (FC) greater than the biological cutoff (BCO) for rilpivirine (FC=2).
Site-directed mutagenesis (SDM) was performed to verify the association of Y188L with RPV resistance. The impact of this mutation was also evaluated and compared to the existing RPV RAMs (K101E/P, E138A/G/K/Q/R, V179L, Y181C/I/V, H221Y, F227C, and M230I/L) by performing in-silico site directed mutagenesis (is SDM) as a method for analyzing samples in the database that have wild type amino acids at RPV resistance positions except for the single mutation of interest. Samples were not excluded based on other NNRTI RAMs, or their NRTI and PI profile. In the is SDM analysis, fold change (FC) distribution of samples with each mutation was compared to specimens without the mutation, and the difference was evaluated for statistical significance using Mann-Whitney test.
Drug susceptibility tests performed with resistance test vectors were carried out using packaging host and target host cells consisting of the human embryonic kidney cell line 293. […]

Take `O=C1Nc2ccc(Cl)cc2[C@@](C#CC2CC2)(C(F)(F)F)O1` [efavirenz]: the “susceptibility of HIV with Y188L mutation (fold change in IC50 relative to biological cutoff)” value in assay [1] is on record as “reduced susceptibility”.

In the case of `Cc1ccnc2c1NC(=O)c1cccnc1N2C1CC1` [nevirapine], in assay [1], the “susceptibility of HIV with Y188L mutation (fold change in IC50 relative to biological cutoff)” value is “reduced susceptibility”.

Turning to `Cc1cc(/C=C/C#N)cc(C)c1Nc1ccnc(Nc2ccc(C#N)cc2)n1` [rilpivirine], the “fold change in IC50 (FC) of the Y188L site directed mutant” value in assay [2] was 6.1 fold. For the same compound, the “median fold change in IC50 (FC) of clinical specimens with Y188L” value in assay [3] is 9.2 fold.
